Reference: patent EP0555938A1, “Use of phenoxyacetate derivatives for the restoration of neural function” (Albert ROLLAND S.A., priority 1992, dated 1993)

How the values were obtained:
[1] = system: nerf sciatique; experiment: Regeneration of the sciatic nerve after exposure to cold (plantar pain perception, Randal et Sellito apparatus); format: in vivo, rats Charles RIVER; settings: 500 mg/kg P.U/jour
Procedure: L'étude est menée sur des lots de rats Charles RIVER (100-110 g), anesthésiés au Mébubarbital (30 mg/kg I.P).
Le nerf sciatique droit est isolé et on en pratique la congélation sur une longueur de 3 mm, au niveau du tiers supérieur de la cuisse. Cette congélation est réalisée par applications successives, pendant 30 secondes chacune, de petites masses métalliques adaptées sur un champ d'artère et plongées, préalablement, dans l'azote liquide.
Le traitement par les produits à étudier est pratique à partir du premier jour après l'opération (J₁), jusqu'à J₁₂.
La regénération nerveuse éventuelle est recherchée par la mesure de la perception douloureuse au niveau plantaire des deux pattes postérieures des animaux, en utilisant l'appareil de Randal et Sellito qui permet l'évaluation de la sensibilité locale par application d'un poids progressivement augmenté en fonction du temps.
Les résultats sont exprimés à partir des mesures réalisées sur chaque patte, 4 heures après le dernier traitement. La valeur de la regénération de la sensibilité, donc de la regénération nerveuse, est représentée par la différence de réponse au test de la patte au nerf lésé par rapport à la patte contralatérale intacte.
L'analyse statistique est faite sur les deux séries de valeurs par analyse de Kruskall-Wallis et test U de Mann-Whitney. […]

[2] = system: nerf sciatique; experiment: Speed of sensory reinnervation after freezing lesion of the sciatic nerve (latency of somesthetic evoked potential); format: in vivo, rat whistar mâle; settings: 150 mg/kg, another batch of rats (Fig. 2)
Procedure: La vitesse de réinnervation sensitive après lésion du nerf sciatique et dégénérescence wallerienne a été étudiée chez le rat whistar mâle de 210 g ± 10 g. Le nerf sciatique droit a été lésé par congélation au moyen d'une cryode à cataracte portée à -170°C pendant 30 secondes en 3 points d'une même circonférence, située au tiers supérieur de la cuisse, à 90 ± 5 mm de la pénétration du nerf dans la région plantaire. Le nerf fémoris interne était excisé sur plusieurs cm. La récupération sensitive a été appréciée en mesurant la latence du potentiel évoqué somesthésique recueilli au niveau de l'aire primaire contralatérale et homolatérale, au moyen d'électrodes métalliques extra-durémériennes scéllées et laissées à demeure. La réponse était évoquée en stimulant le coussinet le plus interne de la sole plantaire droite au moyen d'un choc électrique de 5 mA délivré à courant constant pendant 2 ms toutes les 620 ms. Les réponses étaient moyennées de 500 à 2.000 fois et leurs latences mesurées avec une précision de ± 0,5 ms.
La latence de la réponse positive (P1) la plus précoce et à seuil le plus bas, a été mesurée et comparée chez trois groupes d'animaux aux jours J +25, +29, +33, +38, +43. Le groupe de témoins (n=11) a reçu par gavage 6 jours sur 7, 0,5 g/kg de gomme arabique. […]

SMILES | réactivité (perception douloureuse au niveau plantaire, patte lésée vs patte contralatérale) ([1]; sixth day after operation, oral, in water) | amélioration de la réactivité (regénération de la sensibilité) ([1]; twelfth day after operation, 4 h after last treatment, oral (plate no. 3)) | modification dans la regénération des fibres nerveuses [2]
CN(C)CCOC(=O)COc1ccc(Cl)cc1 [Méclofénoxate] | tendance à une meilleure réactivité | l'amélioration est significative | 
CC(C)Nc1ncccn1 [isaxonine] |  |  | aucune modification sensible
